Data on three molecules can be found in US7501413B2, “Dicarboxamide derivatives” (Hoffmann-La Roche Inc., priority 2004, dated 2009).

In the experiment the target is T1, human factor Xa (Homo sapiens, UniProt P00742).
T1 construct: purchased Enzyme Research Laboratories
Briefly: Factor Xa chromogenic peptide substrate assay (S-2222). It is filed as biochemical. The conditions noted are these: human factor Xa 3 nM, chromogenic substrate S-2222 at 200 nM, HNPT buffer pH 7.8, room temperature; apparent Ki calculated from IC50 (Cheng-Prusoff), Km 613 μM. How it is done:
Factor Xa activity was measured spectrophotometrically in microtiter plates in a final volume of 150 μl using the following conditions: Inhibition of human factor Xa (Enzyme Research Laboratories) was tested at an enzyme concentration of 3 nM using the chromogenic substrate S-2222 (Chromogenix AB, Mölndal, Sweden) at […]. The reaction kinetics of the enzyme and the substrate were linear with both time and the enzyme concentration. The inhibitors were dissolved in DMSO and tested at various concentrations up to 100 μM. The inhibitors were diluted using HNPT buffer consisting of HEPES 100 mM, NaCl 140 mM, PEG 6000 0.1% and Tween 80 0.02%, pH 7.8. The cleavage of S-2222 by human factor Xa was followed at 405 nm for 5 minutes at room temperature. The velocity of the reaction was determined by the autoreader from the slope of the linear regression fit to 7 time points (1 minute). The initial velocity for each inhibitor concentration was determined by the slope of at least 4 time points in the linear phase by a linear regression fit (mOD/min^2). Apparent dissociation constants Ki were calculated according to Cheng and Prusoff [Cheng, Y. C.; Prusoff, W. H. Relationship between the inhibition constant (Ks) and the concentration of the inhibitor that causes 50 percent inhibition (IC50) of an enzyme reaction. Biochem. Pharmacol. 1973, 22, 3099-3108.] based on the IC50 and the respective Km, determined previously (Ki=IC50/(1+S/Km)). The Km for the substrate used was determined under the conditions of the test with at least 5 substrate concentrations ranging from 0.5 to 15 times Km. [Lottenberg R, Hall J A, Blinder M, Binder E P, Jackson C M., The action of thrombin on peptide p-nitroanilide substrates. Substrate selectivity and examination of hydrolysis under different reaction conditions. Biochim Biophys Acta. 1983 Feb. 15; 742(3):539-57]. according to Eadie [Eadie G. S. The inhibition of cholinesterase by physostigmine and prostigmine. J. Biol. Chem. 1942, 146, 85-93.]. The Km for S-2222 amounted to 613 μM.

T1 sequence (P00742 235-488 limits assumed): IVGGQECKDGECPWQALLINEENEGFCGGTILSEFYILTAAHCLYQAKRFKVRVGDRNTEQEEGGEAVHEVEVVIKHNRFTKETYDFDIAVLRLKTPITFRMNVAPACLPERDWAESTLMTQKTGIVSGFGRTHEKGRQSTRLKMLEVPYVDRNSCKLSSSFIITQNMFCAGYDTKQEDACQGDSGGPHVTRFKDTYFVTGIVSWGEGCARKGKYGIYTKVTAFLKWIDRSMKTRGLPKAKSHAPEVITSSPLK
T1 sequence (P00742 41-179 partner limits assumed): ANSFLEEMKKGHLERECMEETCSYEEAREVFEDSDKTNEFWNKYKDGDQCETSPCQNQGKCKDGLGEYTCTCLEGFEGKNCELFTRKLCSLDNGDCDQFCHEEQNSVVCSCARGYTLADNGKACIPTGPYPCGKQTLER

Take `COC1(CO)C[C@H](C(=O)Nc2ccc(Cl)cc2)[C@@H](C(=O)Nc2ccc(-n3ccccc3=O)cc2F)C1` (single isomer, unassigned) [Example 47, (1S,2S,4S)- or (1S,2S,4R)-4-Hydroxymethyl-4-methoxy-cyclopentane-1,2-dicarboxylic acid 1-[(4-chloro-phenyl)-amide]2-{[2-fluoro-4-(2-oxo-2H-pyridin-1-yl)-phenyl]-amide}]: the Ki is 0.009 µM.

Turning to `O=C(Nc1ccc(Cl)cc1)[C@H]1CC2(CC2)C[C@@H]1C(=O)Nc1ccc(-n2ccccc2=O)cc1F` [Example 48, (5S,6S)-Spiro[2.4]heptane-5,6-dicarboxylic acid (4-chloro-phenyl)-amide [2-fluoro-4-(2-oxo-2H-pyridin-1-yl)-phenyl]-amide], the Ki was 0.008 µM.

Consider `O=C(Nc1ccc(Cl)cc1)[C@H]1C[C@@H](O)C[C@H]1C(=O)Nc1ccc(-n2ccccc2=O)cc1F` [Example 52, (1S,2S,4S)-4-Hydroxy-cyclopentane-1,2-dicarboxylic acid 1-[(4-chloro-phenyl)-amide]2-{[2-fluoro-4-(2-oxo-2H-pyridin-1-yl)-phenyl]-amide}], for which the Ki is 0.013 µM.
